Data: the supplement of paper PMC13380429

How the values were obtained:
Settings in all cases: 72 h
[1] = system: Caco-2; test: cell viability relative to DMSO; higher = less toxic
[2] = system: Calu-3; test: as above
[3] = system: HepG2; test: as above
[4] = system: U2OS; test: as above
[5] = system: Vero E6; test: as above
[6] = system: Caco-2; test: relative viability EC50 (midpoint between 100% and the lowest measured viability); higher = less toxic
[7] = system: Calu-3; test: as above
[8] = system: HepG2; test: as above
[9] = system: U2OS; test: as above
[10] = system: Vero E6; test: as above
[11] = system: Caco-2; test: drug sensitivity score (DSS) for viability; higher = more toxic; extreme values may be limits of the assay
[12] = system: Calu-3; test: as above
[13] = system: HepG2; test: as above
[14] = system: U2OS; test: as above
[15] = system: Vero E6; test: as above

Structure (SMILES) | cell viability ([1]; 1 nM) [%] | cell viability ([1]; 10 nM) [%] | cell viability ([1]; 100 nM) [%] | cell viability ([1]; 1000 nM) [%] | cell viability ([1]; 10000 nM) [%] | cell viability ([2]; 1 nM) [%] | cell viability ([2]; 10 nM) [%] | cell viability ([2]; 100 nM) [%] | cell viability ([2]; 1000 nM) [%] | cell viability ([2]; 10000 nM) [%] | cell viability ([3]; 1 nM) [%] | cell viability ([3]; 10 nM) [%] | cell viability ([3]; 100 nM) [%] | cell viability ([3]; 1000 nM) [%] | cell viability ([3]; 10000 nM) [%] | cell viability ([4]; 1 nM) [%] | cell viability ([4]; 10 nM) [%] | cell viability ([4]; 100 nM) [%] | cell viability ([4]; 1000 nM) [%] | cell viability ([4]; 10000 nM) [%] | cell viability ([5]; 1 nM) [%] | cell viability ([5]; 10 nM) [%] | cell viability ([5]; 100 nM) [%] | cell viability ([5]; 1000 nM) [%] | cell viability ([5]; 10000 nM) [%] | relative viability EC50 [6] [µM] | relative viability EC50 [7] [µM] | relative viability EC50 [8] [µM] | relative viability EC50 [9] [µM] | relative viability EC50 [10] [µM] | drug sensitivity score [11] | drug sensitivity score [12] | drug sensitivity score [13] | drug sensitivity score [14] | drug sensitivity score [15]
CC(C)(C)NCC(O)COc1cccc2[nH]c(=O)[nH]c12 (stereo not given) | 96.7 | 100 | 96.5 | 97 | 97.9 | 94.9 | 101 | 88.6 | 106 | 106 | 97.7 | 93.3 | 105 | 110 | 113 | 96.8 | 97 | 97.4 | 97.9 | 101 | 98.7 | 97.2 | 97.1 | 103 | 105 | > 10 | > 10 | > 10 | > 10 | > 10 | 0 | 0 | 0 | 0 | 0
CC1(C)N=C(N)N=C(N)N1OCCCOc1cc(Cl)c(Cl)cc1Cl | 99.7 | 91.5 | 95.5 | 102 | 99.6 | 100 | 96.1 | 93.8 | 93.7 | 100 | 104 | 93.8 | 93.9 | 99.5 | 98.7 | 99.3 | 93.9 | 99.1 | 95.7 | 95 | 94.7 | 96.8 | 95.3 | 98 | 108 | > 10 | > 10 | > 10 | > 10 | > 10 | 0 | 0 | 0 | 0 | 0
CCCCOc1ccc(C(=O)Nc2ccc(F)cc2F)cc1 | 105 | 106 | 104 | 92.6 | 96.5 | 107 | 97.1 | 109 | 99.2 | 95.5 | 100 | 98.2 | 101 | 90.7 | 97.6 | 98.1 | 98.2 | 101 | 96.6 | 99.5 | 99.2 | 102 | 98.4 | 99.7 | 101 | > 10 | > 10 | > 10 | > 10 | > 10 | 0 | 0 | 0 | 0 | 0
CCN(c1cc(C#CCN2CCOCC2)cc(C(=O)NCc2c(C)cc(C)[nH]c2=O)c1C)[C@H]1CC[C@H](N(C)CCOC)CC1 | 92.5 | 103 | 86.4 | 95.3 | 91.6 | 97.6 | 95.3 | 108 | 103 | 103 | 92.7 | 122 | 112 | 105 | 91.2 | 94.3 | 95.7 | 96.4 | 97.7 | 103 | 107 | 96.9 | 95.9 | 96.8 | 102 | > 10 | > 10 | > 10 | > 10 | > 10 | 0 | 0 | 0 | 0 | 0
CCn1c(N)c(C(=O)NC)c(=O)c2ccc(C#C[C@@](C)(O)COC)nc21 | 105 | 92.8 | 104 | 94.2 | 92.5 | 89.4 | 100 | 103 | 98.3 | 109 | 92.6 | 102 | 93.2 | 105 | 104 | 102 | 96.9 | 98.3 | 97.8 | 97.4 | 94.1 | 98.6 | 94.8 | 99.1 | 104 | > 10 | > 10 | > 10 | > 10 | > 10 | 0 | 0 | 0 | 0 | 0
CN(C)Cc1c(C(=O)NCCOc2ccc(C(=O)NO)cc2)oc2ccccc12 | 90.2 | 101 | 89.2 | 23.6 | 1.4 | 95.3 | 93.2 | 73.5 | 31.9 | 8.2 | 98.9 | 92.7 | 76.5 | 11.4 | 0.1 | 96.9 | 101 | 82.4 | 15.8 | 1.3 | 97.4 | 96.2 | 95.7 | 38.2 | -0.1 | 0.425 | 0.276 | 0.231 | 0.292 | 0.738 | 15.6 | 16.1 | 19 | 17.6 | 13
CN(CCOc1ccc(-c2ccc3c(c2)OCO3)cc1C(C)(C)C)CC(=O)O | 104 | 102 | 94.2 | 92.8 | 89.8 | 100 | 95.1 | 93.9 | 103 | 107 | 95.8 | 89.7 | 110 | 92.9 | 110 | 93.9 | 98.5 | 97.5 | 101 | 100 | 99.3 | 97.6 | 97.6 | 95.3 | 98.7 | > 10 | > 10 | > 10 | > 10 | > 10 | 0 | 0 | 0 | 0 | 0
CO[C@@H](C)Cn1c(=O)n(C)c2cnc3ccc(-c4cncc(C(C)(C)O)c4)cc3c21 | 97.2 | 93.4 | 82.4 | 35.6 | 25.9 | 108 | 89.8 | 68 | 26.9 | 18 | 94.4 | 99.7 | 95.8 | 56.9 | 14.8 | 108 | 102 | 84 | 25.7 | 8.3 | 96.4 | 101 | 87.2 | 54.3 | 28.9 | 0.238 | 0.144 | 0.974 | 0.331 | 0.514 | 14 | 17.4 | 9.8 | 15.7 | 10.2
COc1cc(N2CCC(N(C)C)CC2)ccc1Nc1ncc(Cl)c(Nc2ccccc2P(C)(C)=O)n1 | 93.9 | 95.2 | 94.8 | 79.4 | 41.9 | 97.9 | 97.2 | 93.8 | 51.7 | 5.6 | 105 | 107 | 92.9 | 61.3 | 14.4 | 98.2 | 100 | 102 | 83.4 | 0.5 | 101 | 105 | 103 | 100 | 25.6 | 1.37 | 0.943 | 1.11 | 1.9 | 3.17 | 5.6 | 10.9 | 9.2 | 8.2 | 4.1
COc1ccc(CNC(=O)c2sc3nc(C)cc(C)c3c2N)cc1 | 95.8 | 96.7 | 93.6 | 97.1 | 93.5 | 98.7 | 98.8 | 98.2 | 97.6 | 101 | 83.3 | 94.4 | 93.9 | 91.9 | 107 | 94.1 | 92.1 | 92.5 | 96.4 | 94.7 | 95.8 | 101 | 106 | 93.2 | 94.4 | > 10 | > 10 | > 10 | > 10 | > 10 | 0 | 0 | 0 | 0 | 0
Cc1cc(NC(=O)Nc2ccc(N(C)C)cc2)c2cc(F)cc(F)c2n1 | 100 | 103 | 99.8 | 89.5 | 91.6 | 95.2 | 98.8 | 101 | 105 | 94.7 | 103 | 93.7 | 96.4 | 93.1 | 80.1 | 98.4 | 104 | 99.8 | 103 | 91.9 | 101 | 95.8 | 100 | 97.9 | 100 | > 10 | > 10 | > 10 | > 10 | > 10 | 0.1 | 0 | 0.8 | 0 | 0
Cn1cc(-c2ccc3nnc(C(F)(F)c4ccc5ncccc5c4)n3n2)cn1 | 105 | 96 | 95.3 | 95.9 | 92.3 | 97.4 | 104 | 89.6 | 108 | 106 | 102 | 94.3 | 105 | 109 | 104 | 104 | 101 | 101 | 95.5 | 96.9 | 99.9 | 107 | 101 | 97.8 | 92.4 | > 10 | > 10 | > 10 | > 10 | > 10 | 0 | 0 | 0 | 0 | 0
